Reference: patent US10098902B2, “Arginase inhibitors as therapeutics” (Mars, Incorporated, priority 2010, dated 2018)

Key:
[1] = system: animals undergoing experimental autoimmune encephalomyelitis (EAE); conditions: mouse, in vivo; cited from earlier work
[2] = target: human arginase I (ARG I) (Homo sapiens (Human), UniProt P05089); assay: Inhibition of arginase I, spectrophotometric urea assay at 530 nm; type: biochemical; conditions: potency rank 1-5; pH 7.4, 37° C., 60 minutes
Method: (§1) Inhibition of arginase I (ARG I) and arginase II (ARG II) by Formula I or Formula II compounds is followed spectrophotometrically at 530 nm. The compound to be tested was dissolved in DMSO at an initial concentration 50-fold greater than its final concentration in the cuvette. 10 μl of the stock solution was diluted in 90 μl of the assay buffer that comprises 0.1M sodium phosphate buffer containing 130 mM NaCl, pH 7.4, to which is added ovalbumin (OVA) at a concentration of 1 mg/ml. Solutions of arginase I and II were prepared in 100 mM sodium phosphate buffer, pH 7.4 containing 1 mg/ml of OVA to give an arginase stock solution at a final concentration of 100 ng/ml.
(§2) To each well of a 96-well microtiter plate was added 40 μl of enzyme, 10 μl of an inventive compound and 10 μl of enzyme substrate (L-arginine+manganese sulfate). For wells that were used as positive controls, only the enzyme and its substrate were added, while wells used as negative controls contained only manganese sulfate.
(§3) After incubating the microtiter plate at 37° C. for 60 minutes, 150 μl of a urea reagent obtained by combining equal proportions (1:1) of reagents A and B is added to each well of the microtiter plate to stop the reaction. The urea reagent is made just before use by combining Reagent A (10 mM o-phthaldialdehyde, and 0.4% polyoxyethylene (23) lauryl ether (w/v) in 1.8 M sulfuric acid) with Reagent B (1.3 mM primaquine diphosphate, 0.4% polyoxyethylene (23) lauryl ether (w/v), 130 mM boric acid in 3.6 mM sulfuric acid). After quenching the reaction mixture, the microtiter plate is allowed to stand for an additional 10 minutes at room temperature to allow the color to develop. The inhibition of arginase was computed by measuring the optical density (OD) of the reaction mixture at 530 nm and normalizing the OD value to percent inhibition observed in the control. The normalized OD is then used to generate a dose-response curve by plotting the normalized OD values against log [concentration] and using regression analysis to compute the IC50 values.

[3] = target: human arginase II (ARG II) (Homo sapiens (Human), UniProt P78540); assay: Inhibition of arginase II, spectrophotometric urea assay at 530 nm; type: biochemical; conditions: potency rank 1-5; pH 7.4, 37° C., 60 minutes
Method: as §1, §2, §3

[4] = system: bacterial arginase; conditions: cited from earlier work
[5] = system: central airways in the murine chronic model; conditions: murine chronic asthma model; cited from earlier work
[6] = system: spontaneously hypertensive animals; conditions: cited from earlier work

Sequence of human arginase II (ARG II) (P78540 23-354): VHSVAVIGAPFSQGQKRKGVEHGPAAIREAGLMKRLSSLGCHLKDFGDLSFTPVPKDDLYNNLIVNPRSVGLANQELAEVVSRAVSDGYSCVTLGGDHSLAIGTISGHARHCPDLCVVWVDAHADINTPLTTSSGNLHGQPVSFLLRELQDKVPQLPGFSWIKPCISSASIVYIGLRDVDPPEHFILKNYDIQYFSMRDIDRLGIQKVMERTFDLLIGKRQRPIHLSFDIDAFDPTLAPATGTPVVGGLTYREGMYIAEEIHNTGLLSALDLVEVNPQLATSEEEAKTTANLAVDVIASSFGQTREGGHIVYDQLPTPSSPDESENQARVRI
Sequence of human arginase I (ARG I) (P05089 whole entry): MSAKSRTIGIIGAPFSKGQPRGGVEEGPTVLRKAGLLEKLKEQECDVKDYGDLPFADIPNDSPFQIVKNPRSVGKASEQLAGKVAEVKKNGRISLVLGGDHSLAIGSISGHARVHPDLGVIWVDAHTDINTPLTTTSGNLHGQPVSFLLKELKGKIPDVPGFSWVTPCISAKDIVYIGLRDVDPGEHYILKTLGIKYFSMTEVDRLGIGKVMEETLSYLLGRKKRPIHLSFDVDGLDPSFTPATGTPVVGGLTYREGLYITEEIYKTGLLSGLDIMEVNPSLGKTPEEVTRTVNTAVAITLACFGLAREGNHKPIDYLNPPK

Compound	IC50 [2]	IC50 [3]	other results
NC(CCCCB(O)O)C(=O)O (centres unmarked) [ABH, amino-6-boronohexanoic acid]	–	–	severity of EAE versus control animals [1]: much milder form of EAE
N[C@@]1(C(=O)O)CN(CC2Cc3ccc(C(F)(F)F)cc3CN2)C[C@@H]1CCCB(O)O (stereo partly drawn) [Example 55, (3R,4S)-3-amino-4-(3-boronopropyl)-1-((7-(trifluoromethyl)-1,2,3,4-tetrahydroisoquinolin-3-yl)methyl)pyrrolidine-3-carboxylic acid]	0.1 to 250 nM	0.1 to 250 nM	–
N[C@@]1(C(=O)O)CN(C(=O)C2Cc3ccc(Cl)cc3CN2)C[C@@H]1CCCB(O)O (stereo partly drawn) [Example 56, (3R,4S)-3-amino-4-(3-boronopropyl)-1-(7-chloro-1,2,3,4-tetrahydroisoquinoline-3-carbonyl)pyrrolidine-3-carboxylic acid]	0.1 to 250 nM	0.1 to 250 nM	–
CNC(Cc1ccccc1)C(=O)N1C[C@H](CCCB(O)O)[C@](N)(C(=O)O)C1 (stereo partly drawn) [Example 58, (3R,4S)-3-amino-4-(3-boronopropyl)-1-(2-(methylamino)-3-phenylpropanoyl)pyrrolidine-3-carboxylic acid]	1000 to 2000 nM	1000 to 2000 nM	–
N[C@@]1(C(=O)O)CN(CC2Cc3c(Cl)cc(Cl)cc3CN2)C[C@@H]1CCCB(O)O (stereo partly drawn) [Example 59, (3R,4S)-3-amino-4-(3-boronopropyl)-1-((5,7-dichloro-1,2,3,4-tetrahydroisoquinolin-3-yl)methyl)pyrrolidine-3-carboxylic acid]	0.1 to 250 nM	0.1 to 250 nM	–
N[C@@]1(C(=O)O)CN(C(=O)CNCc2ccccc2)C[C@@H]1CCCB(O)O [Example 60, (3R,4S)-3-amino-1-(2-(benzylamino)acetyl)-4-(3-boronopropyl)pyrrolidine-3-carboxylic acid]	251 to 1000 nM	1000 to 2000 nM	–
N[C@H]1C[C@H](CCCB(O)O)[C@](N)(C(=O)O)C1 [Example 61, (1S,2S,4S)-1,4-diamino-2-(3-boronopropyl)cyclopentanecarboxylic acid]	251 to 1000 nM	251 to 1000 nM	–
NC(=NCCC[C@H](N)C(=O)O)NO [NOHA]	–	–	CD3 expression on T-cells [4]: reestablished CD3 expression on T-cells; production of NO by macrophages [4]: enhanced production of NO by macrophages
N[C@@H](CSCCB(O)O)C(=O)O [S-(2-boronoethyl)-L-cysteine]	–	–	methacholine induced responsiveness of the central airways [5]: attenuated
N=C(NO)NCC[C@H](N)C(=O)O [nor-NOHA, N^ω-hydroxy-nor-L-arginine]	–	–	effect on blood pressure [6]: lowered blood pressure
